According to patent US20230233690A1, “ANDROGEN RECEPTOR PROTEIN DEGRADERS” (THE REGENTS OF THE UNIVERSITY OF MICHIGAN, priority 2020, published 2023):
One block for each molecule: values may come before it.

Assays:
AR protein [1] = assay: Western blotting of AR protein degradation in MDA-MB-453 cells; assay type: cell-based; parameters: key: A: >90% degradation (24 hr treatment); B: >50% degradation but <90% (24 hr treatment); C: >10% degradation but <50% (24 hr treatment); D: No significant degradation (24 hr treatment); settings: 24 hr treatment
Method: (§1) The appropriate cell line, e.g., prostate cancer LNCaP, Vcap, or MDA-MB-453 cell line, was treated with Compounds of the Disclosure. The treated cells were lysed with RIPA buffer. The AR level in the cell lysates was examined by western blotting and a specific AR antibody (ab194196, Abcam, Cambridge, Mass. 02139) with concentration of 1:20,000. GAPDH was used as a loading control.
(§2) Bands were quantified with ImageJ software. The relative numbers of each band obtained from normalization with its corresponding GAPDH level were compared with Prism 8 software. The DC50 values were produced from Prism 8, and the DC90 values were calculated with an equation=Bottom+(Top−Bottom)/(1+10^((Log EC50−X)*HillSlope) based on DC50 and Hillslope values.
(§3) The amount of AR protein degradation in LNCaP, VCap, and MDA-MB-453 cells caused representative Compounds of the Disclosure at the concentrations indicated is presented in Table 4 and Table 5.

AR protein [2] = target: T1, AR protein (Homo sapiens, UniProt P10275, T878A); assay: Western blotting of AR protein degradation in LNCaP cells; assay type: cell-based; settings: 24 hr treatment
T1 construct: endogenous in cells; host or cells: LNCaP
T1 sequence (P10275 1-920 T878A): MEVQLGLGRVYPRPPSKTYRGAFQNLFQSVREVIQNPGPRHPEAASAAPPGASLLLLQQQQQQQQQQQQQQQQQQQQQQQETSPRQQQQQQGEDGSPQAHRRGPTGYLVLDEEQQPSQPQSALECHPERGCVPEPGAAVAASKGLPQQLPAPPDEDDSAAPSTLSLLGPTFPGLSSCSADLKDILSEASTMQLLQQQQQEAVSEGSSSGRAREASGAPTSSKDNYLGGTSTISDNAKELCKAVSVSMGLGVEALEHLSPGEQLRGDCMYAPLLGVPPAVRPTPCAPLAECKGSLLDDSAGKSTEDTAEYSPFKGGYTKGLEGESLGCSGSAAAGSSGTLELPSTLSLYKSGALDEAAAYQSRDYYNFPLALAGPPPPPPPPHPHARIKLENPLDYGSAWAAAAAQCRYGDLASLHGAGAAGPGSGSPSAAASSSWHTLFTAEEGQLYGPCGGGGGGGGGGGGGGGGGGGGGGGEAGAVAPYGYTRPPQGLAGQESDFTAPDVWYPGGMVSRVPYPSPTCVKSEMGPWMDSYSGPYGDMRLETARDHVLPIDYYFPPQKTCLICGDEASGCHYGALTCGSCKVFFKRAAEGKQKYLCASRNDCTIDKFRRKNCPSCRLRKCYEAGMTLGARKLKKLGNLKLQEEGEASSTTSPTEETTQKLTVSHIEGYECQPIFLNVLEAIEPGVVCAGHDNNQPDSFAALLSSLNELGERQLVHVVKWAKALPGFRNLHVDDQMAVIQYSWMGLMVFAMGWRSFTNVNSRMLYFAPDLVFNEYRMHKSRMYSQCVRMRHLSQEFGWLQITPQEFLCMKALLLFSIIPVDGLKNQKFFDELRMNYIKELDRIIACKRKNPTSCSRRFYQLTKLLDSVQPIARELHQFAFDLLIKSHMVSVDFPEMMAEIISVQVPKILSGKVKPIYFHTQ
Method: as §1, §2, §3

[3] = PK parameters in male ICR mice; assay type: in vivo
Method: (§4) The pharmacokinetics (PK) of representative Compounds of the Disclosure were evaluated in mice or rats to provide an assessment of their oral bioavaibility. All animal experiments were performed under the guidelines of the University of Michigan Committee for Use and Care of Animals and using an approved animal protocol.

[4] = PK parameters in male SD rats; assay type: in vivo; settings: for AUC(0-t) / clearance / Vd / Cmax / half-life: rat, in vivo; for clearance: read-out: Cl-obs; for Vd: read-out: Vss
Method: as §4

SMILES: N#Cc1ccc(O[C@@H]2CCC[C@@H](Oc3ccc(N4CCN(CC5CCN(c6ccc7c(c6)C(=O)N(C6CCC(=O)NC6=O)C7=O)CC5)CC4)cc3)C2)cc1Cl (stereo partly drawn) [compound 55]
AR protein degradation MDA-MB-453 100 nM (AR protein [1]): C (>10% degradation but <50% (24 hr treatment))

SMILES: N#Cc1ccc(O[C@@H]2CCC[C@@H](Oc3ccc(C4CCN(CC5CCN(c6cccc7c6C(=O)N(C6CCC(=O)NC6=O)C7=O)CC5)CC4)cc3)C2)cc1Cl (stereo partly drawn) [compound 54]
AR protein degradation MDA-MB-453 100 nM (AR protein [1]): C (>10% degradation but <50% (24 hr treatment))

AR protein degradation LNCAP 10 nM (AR protein [2]; 10 nM): A (>90% degradation (24 hr treatment))
AR protein degradation LNCAP 100 nM (AR protein [2]; 100 nM): A (>90% degradation (24 hr treatment))
SMILES: CC1(C)[C@H](NC(=O)c2ccc(N3CCN(CCCCCOc4cccc5c4CN(C4CCC(=O)NC4=O)C5=O)CC3)nc2)C(C)(C)[C@H]1Oc1ccc(C#N)c(Cl)c1 (stereo partly drawn) [compound 50]

SMILES: N#Cc1ccc(O[C@H]2CC[C@H](Oc3ccc(C4CCN(CC5CCN(c6cccc7c6C(=O)N(C6CCC(=O)NC6=O)C7=O)CC5)CC4)cc3)CC2)cc1Cl (stereo partly drawn) [compound 53]
AR protein degradation MDA-MB-453 10 nM (AR protein [1]): D
AR protein degradation MDA-MB-453 100 nM (AR protein [1]): C (>10% degradation but <50% (24 hr treatment))

F ([3]; PO 5 mg/kg): 62.2%
AUC(0-t) ([3]; mouse, in vivo, IV 2 mg/kg, read-out: AUC0-t): 14600 ng·h/mL
clearance ([3]; mouse, in vivo, IV 2 mg/kg, read-out: Cl-obs): 1.7 mL/min/kg
Vd ([3]; mouse, in vivo, IV 2 mg/kg, read-out: Vss): 1.7 L/kg
half-life ([3]; mouse, in vivo, PO 5 mg/kg): 10.3 h
AUC(0-t) ([3]; mouse, in vivo, PO 5 mg/kg, read-out: AUC0-t): 22700 ng·h/mL
Cmax ([3]; mouse, in vivo, PO 5 mg/kg, read-out: Cmax): 1820 ng/mL
F ([4]; PO 5 mg/kg): 25.0%
AUC(0-t) ([4]; IV 2 mg/kg): 9140 ng·h/mL
clearance ([4]; IV 2 mg/kg): 3.1 mL/min/kg
Vd ([4]; IV 2 mg/kg): 2 L/kg
AUC(0-t) ([4]; PO 5 mg/kg): 5720 ng·h/mL
Cmax ([4]; PO 5 mg/kg): 414 ng/mL
half-life ([4]; PO 5 mg/kg): 10.4 h
SMILES: CC1(C)[C@H](NC(=O)c2ccc(N3CCN(C4CN(c5ccc6c(c5)C(=O)N(C5CCC(=O)NC5=O)C6=O)C4)CC3)cc2)C(C)(C)[C@H]1Oc1ccc(C#N)c(Cl)c1 (stereo partly drawn) [Cpd. No. 113, N-((1r,3r)-3-(3-chloro-4-cyanophenoxy)-2,2,4,4-tetramethylcyclobutyl)-4-(4-(1-(2-(2,6-dioxopiperidin-3-yl)-1,3-dioxoisoindolin-5-yl)azetidin-3-yl)piperazin-1-yl)benzamide]

SMILES: N#Cc1ccc(O[C@H]2CC[C@H](Oc3ccc(C4CCN(CC5CCN(c6ccc7c(c6)C(=O)N(C6CCC(=O)NC6=O)C7=O)CC5)CC4)cc3)CC2)cc1Cl (stereo partly drawn) [compound 52]
AR protein degradation MDA-MB-453 10 nM (AR protein [1]): D
AR protein degradation MDA-MB-453 100 nM (AR protein [1]): D

SMILES: N#Cc1ccc(OC2CCC(Oc3ccc(C#CC4CCN(CC5CCN(c6ccc7c(c6)C(=O)N(C6CCC(=O)NC6=O)C7=O)CC5)CC4)cc3)CC2)cc1Cl (stereo not drawn) [compound 51]
AR protein degradation MDA-MB-453 10 nM (AR protein [1]): D
AR protein degradation MDA-MB-453 100 nM (AR protein [1]): D

AUC(0-t) ([3]; IV 1 mg/kg): 4333.7 ng·h/mL
Cl-obs ([3]; IV 1 mg/kg): 2.2 mL/min/kg
Vss ([3]; IV 1 mg/kg): 3.8 L/kg
AUC(0-t) ([3]; PO 3 mg/kg): 3127 ng·h/mL
Cmax ([3]; PO 3 mg/kg): 207 ng/mL
F ([3]; PO 3 mg/kg): 24%
T1/2 ([3]; PO 3 mg/kg): 12.4 h
SMILES: CC1(C)[C@H](NC(=O)c2ccc(N3CCC(N4CCN(c5ccc6c(c5)C(=O)N(C5CCC(=O)NC5=O)C6=O)CC4)CC3)cc2)C(C)(C)[C@H]1Oc1ccc(C#N)c(Cl)c1 (stereo partly drawn) [compound 189, N-((1r,3r)-3-(3-chloro-4-cyanophenoxy)-2,2,4,4-tetramethylcyclobutyl)-4-(4-(4-(2-(2,6-dioxopiperidin-3-yl)-1,3-dioxoisoindolin-5-yl)piperazin-1-yl)piperidin-1-yl)benzamide]

SMILES: CC1(C)[C@H](NC(=O)c2ccc(N3CCN(C4CCN(c5ccc6c(c5)C(=O)N(C5CCC(=O)NC5=O)C6=O)CC4)CC3)cc2)C(C)(C)[C@H]1Oc1ccc(C#N)c(Cl)c1 (stereo partly drawn) [Cpd. No. 114, N-((1r,3r)-3-(3-chloro-4-cyanophenoxy)-2,2,4,4-tetramethylcyclobutyl)-4-(4-(1-(2-(2,6-dioxopiperidin-3-yl)-1,3-dioxoisoindolin-5-yl)piperidin-4-yl)piperazin-1-yl)benzamide]
AUC(0-t) ([3]; IV 2 mg/kg): 15758.8 ng·h/mL
Cl-obs ([3]; IV 2 mg/kg): 1.7 mL/min/kg
Vss ([3]; IV 2 mg/kg): 1.5 L/kg
AUC(0-t) ([3]; PO 5 mg/kg): 14587.7 ng·h/mL
Cmax ([3]; PO 5 mg/kg): 980.1 ng/mL
F ([3]; PO 5 mg/kg): 37.0%
T1/2 ([3]; PO 5 mg/kg): 11.2 h
F ([4]; PO 5 mg/kg): 11.4%
AUC(0-t) ([4]; IV 2 mg/kg): 1190 ng·h/mL
clearance ([4]; IV 2 mg/kg): 7.7 mL/min/kg
Vd ([4]; IV 2 mg/kg): 2.5 L/kg
AUC(0-t) ([4]; PO 5 mg/kg): 4160 ng·h/mL
Cmax ([4]; PO 5 mg/kg): 100 ng/mL
half-life ([4]; PO 5 mg/kg): 8.9 h
